The values that follow come from ChEMBL document CHEMBL1201862, “PubChem BioAssay data set” (2004).

The nature of experiment [1]: NIH3T3 cell viability loss – ATP luminescence, mouse fibroblasts, counter-screen, dose response (AID 2010).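 Further: cells exposed to compound for about 90 hours before reading.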 It counts as functional, cell-based. (In general: A counterscreen serves to expose hits that act by an unwanted route or on another target.)
Experiment [2] can be described thus: Trypanosoma cruzi growth suppression in host cells – NIH3T3 host cells, beta-gal luminescence, confirmation (AID 2044).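 Further: intracellular parasites grown in NIH/3T3 mouse fibroblasts as host cells; luminescent beta-galactosidase reporter signal from transgenic T. cruzi replicating inside host cells; inhibitors lower the luminescence signal.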 It counts as functional, cell-based.
The test system of a further experiment is INS1. Kind of experiment: INS-1E survival protection against cytokine death – cell-based, luminescence, retest, dose response (AID 449756).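 Further: cell death triggered by IL-1 beta plus TNF-alpha plus IFN-gamma mixture; protective hits raise ATP signal compared with cytokine alone wells.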 It counts as functional. Particulars: Rattus norvegicus.
The next experiment deals with T1, Cytochrome P450 1A2 (Homo sapiens, UniProt P05177).
T1 sequence (P05177 whole entry): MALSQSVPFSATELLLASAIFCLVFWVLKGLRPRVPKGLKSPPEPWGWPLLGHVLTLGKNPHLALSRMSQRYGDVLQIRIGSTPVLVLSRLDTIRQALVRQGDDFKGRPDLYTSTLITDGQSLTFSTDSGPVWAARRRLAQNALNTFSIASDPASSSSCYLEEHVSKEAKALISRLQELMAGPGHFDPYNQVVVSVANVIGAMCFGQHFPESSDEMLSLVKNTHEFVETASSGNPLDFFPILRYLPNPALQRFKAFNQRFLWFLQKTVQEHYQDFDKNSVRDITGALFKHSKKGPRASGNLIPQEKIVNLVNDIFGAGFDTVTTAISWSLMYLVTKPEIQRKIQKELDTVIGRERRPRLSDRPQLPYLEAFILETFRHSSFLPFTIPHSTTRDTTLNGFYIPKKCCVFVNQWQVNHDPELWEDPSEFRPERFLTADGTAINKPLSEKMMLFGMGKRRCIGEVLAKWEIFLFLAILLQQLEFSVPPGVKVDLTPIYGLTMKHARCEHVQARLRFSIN

The test system of experiment [3] is Streptococcus sp. 'group A'. The experiment can be described thus: Streptococcus pyogenes SK(-)GAS viability under kanamycin – luminescence, BacTiterGlo, confirmation, counter-screen for streptokinase expression inhibitor project, dose response (AID 1900). It counts as functional, organism-based.
Another experiment relates to Streptococcus. Kind of experiment: GAS UMAA2166 growth inhibition – luminescence, BacTiterGlo, counter-screen for streptokinase expression inhibitor project, dose response (AID 1915).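 Further: potency for reduction of bacterial viability or growth.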 It counts as functional, organism-based.
In another experiment the target is T2, Streptokinase A (Streptococcus pyogenes serotype M1, UniProt P10520).
T2 sequence (P10520 whole entry): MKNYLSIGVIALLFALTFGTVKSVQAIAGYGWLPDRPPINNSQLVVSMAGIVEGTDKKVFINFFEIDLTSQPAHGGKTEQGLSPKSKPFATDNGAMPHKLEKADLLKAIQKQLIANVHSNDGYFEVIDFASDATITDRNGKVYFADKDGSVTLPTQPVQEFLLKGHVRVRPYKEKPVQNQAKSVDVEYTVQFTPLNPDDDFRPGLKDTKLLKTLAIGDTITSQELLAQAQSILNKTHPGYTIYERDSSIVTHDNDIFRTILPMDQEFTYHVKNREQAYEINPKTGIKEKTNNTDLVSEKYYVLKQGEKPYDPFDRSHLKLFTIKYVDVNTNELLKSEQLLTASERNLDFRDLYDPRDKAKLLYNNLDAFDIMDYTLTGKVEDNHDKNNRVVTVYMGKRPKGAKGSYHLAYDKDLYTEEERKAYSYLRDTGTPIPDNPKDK
The experiment can be described thus: viability-normalized secreted streptokinase activity reduction – plasminogen activation absorbance, OD405, dose response (AID 1914).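 Further: secreted streptokinase activity via plasminogen activation per viability signal from cell pellet.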 The class given is functional, Streptococcus pyogenes M1 GAS.

The nature of experiment [4]: viability of uninfected HEp-2 cells – cell-based, HTS, cytotoxicity control for RSV inhibitor project, dose response (AID 2410). The settings on record: human respiratory syncytial virus. It counts as functional.

Each structure is given as a SMILES string. Active and inactive are the calls of the source. For most assays here, no stated cut-off is given here; in the data, actives have a measured EC50 and inactives only a lower limit. A value given as a limit tells only on which side of the number the result lay.

Usually EC50 stands for the midpoint of the concentration-response curve. In the case of `Cc1ccc(-n2c(-c3ccccc3)cc(/C=N/NC(=O)CC#N)c2-c2ccccc2)cc1`, the values for the concentration giving a half-maximal response (EC50) in experiment [1] and in experiment [2] were > 60 µM (not active) and 1.72 µM (active), respectively. Regarding `COc1cccc(C(=O)OC2CCN(C)CC2)c1`, the results for the EC50 in experiment [1] and in experiment [2] were > 30 µM (not active) and 0.233 µM (active), respectively. The AC50 is the midpoint of the concentration-response curve, whichever way the signal moves. As to `Cc1csc2ncnc(N3CCN(S(=O)(=O)c4cccc(C(F)(F)F)c4)CC3)c12`, the half-maximal activity concentration (AC50) in the experiment on INS1 was 3.86 µM (active). Take `Nc1nc(Nc2ccccc2)nc2c1ncn2[C@@H]1O[C@@H](CO)[C@H](O)[C@H]1O`: the AC50 on Cytochrome P450 1A2 is 39.8 µM (inconclusive). Turning to `CCOC(=O)C1CCN(C(=O)C(=O)c2cn(CC(=O)N3CCCCCC3)c3ccccc23)CC1`, the EC50 was > 60 µM (not active) in experiment [1] and 0.763 µM (active) in experiment [2].

`CC1CCN(C(=O)CCNS(=O)(=O)c2ccc(Br)cc2)CC1`: the AC50 with INS1 is > 260 µM (inactive). Turning to `CCn1c(=O)c(C(=O)NNC(=O)c2ccc(Cl)cc2Cl)c(O)c2ccccc21`, the half-maximal effective concentration (EC50) is 3.62 µM (active) in experiment [3] and 7.58 µM (active) in the experiment on Streptococcus.

As for `Cc1onc(-c2c(F)cccc2Cl)c1C(=O)NCc1ccc2c(c1)OCO2`, the EC50 (in experiment [3]; in the experiment on Streptococcus; on Streptokinase A) was > 150 µM (not active) in each case. Consider `CCCCOc1ccc(/C=C/C2=CC(C)(C)NC(S)=N2)cc1OCC`, for which the EC50 in experiment [1] was > 60 µM (inconclusive); in experiment [2], 0.774 µM (active). With `COc1ccc(C(=O)NC(=S)NNC(=O)COc2ccccc2)cc1`, the EC50 was 2.23 µM (active) in experiment [3] and 3.64 µM (active) with Streptococcus. As for `CCCCCn1c(=O)c(C(=O)Nc2ncccc2C)c(O)c2ccccc21`, the concentration at half-maximal activity (AC50) in the experiment with INS1 was 10.4 µM (active). Take `COc1ccc(CCn2c(-c3cc([N+](=O)[O-])cc([N+](=O)[O-])c3)nc3nc4ccccc4nc32)cc1OC`: the concentration giving a half-maximal response (EC50) in experiment [1] was > 60 µM (not active); in experiment [2], 0.105 µM (active). As to `CCOC(=O)c1ccc(Oc2c[nH]nc2-c2ccc(OCC(=O)NN)cc2O)cc1`, the concentration for a half-maximal effect (EC50) (in experiment [3]; in the experiment with Streptococcus; on Streptokinase A) was > 150 µM (not active) each time. For `COc1cccc(C(=O)Nc2nc(-c3ccccc3)c(-c3ccccc3)o2)c1`, the EC50 in experiment [3] was 1.44 µM (active); in the experiment on Streptococcus, 5.62 µM (active). For `CCCCN(CC)CCNC(=O)c1cn(-c2ccc(Cl)cc2)c(=O)c2ccccc12`, the values for the EC50 in experiment [1] and in experiment [2] were > 60 µM (inconclusive) and 0.896 µM (active), respectively. As for `CCOc1ccccc1CN1CCCC(CNC(=O)Cc2ccc(OC)cc2)C1` (stereo not given), the values for the EC50 in experiment [1] and in experiment [2] were > 60 µM (not active) and 1.33 µM (active), respectively.

In the case of `O=C(CCN1CCN(C/C=C/c2ccccc2)CC1)Nc1cccc(F)c1`, the concentration for a half-maximal effect (EC50) in experiment [1] is 21.9 µM (active); in experiment [2] it was 0.383 µM (active). The CC50 is the concentration at which the toxic effect on the cells reaches its halfway point. As for `Cc1cccc2c1-c1sc(C(=O)N3CCc4ccccc4C3)cc1CO2`, in experiment [4], the 50% cytotoxic concentration (CC50) was 11.6 µM (active). For `COc1ccc(/N=C2/SCC(c3ccc([N+](=O)[O-])cc3)=NN2CCO)cc1`, the 50% cytotoxic concentration (CC50) in experiment [4] is 15.8 µM (active). As to `COc1ccc(C(=O)CC(Nc2ccc([N+](=O)[O-])cc2)c2ccc(Cl)cc2)cc1` (stereo not given), the figures for the EC50 in experiment [1] and in experiment [2] were > 60 µM (not active) and 2.27 µM (active), respectively. On to `N=C(N)C(/N=N\c1ccccc1)C(=N)N` (stereo not given), for which, at Cytochrome P450 1A2, the AC50 is 5.01 µM (inconclusive). As to `Cc1ccc(-c2cccc(C(=O)NCCc3ccccc3)n2)c2ccccc12`, the 50% cytotoxic concentration (CC50) in experiment [4] was 16.2 µM (active). In the case of `NC(=O)N/N=C(/CCCCCC/C(=N\NC(N)=O)c1ccccc1)c1ccccc1`, the results for the concentration giving a half-maximal response (EC50) (in experiment [3]; in the experiment with Streptococcus; on Streptokinase A) were 26.6 µM (active), > 150 µM (not active) and > 150 µM (not active), respectively.

For `CC(C)c1nc(-c2ccccc2)c(-c2ccccc2)[nH]1`, the AC50 with INS1 is 7.08 µM (active). `CCOc1ccccc1OCCOCCN1CCN(Cc2ccccc2)CC1`: the EC50 in experiment [1] is > 60 µM (not active); in experiment [2] it was 0.633 µM (active). For `O=C(C1=C(O)C(=O)N(Cc2ccco2)C1c1cccc(Cl)c1)c1ccco1` (stereo not given), the half-maximal effective concentration (EC50) in experiment [3] is 22.7 µM (active); in the experiment on Streptococcus it was > 150 µM (not active); on Streptokinase A it was > 150 µM (not active). Take `COc1cccc(N/C(C)=C/C(=O)c2ccc(Br)cc2)c1`: the CC50 in experiment [4] is 25.5 µM (active). As to `CCCCc1nc2cc(C(=O)N3CCC(OCCOC)CC3)ccc2o1`, the EC50 (in experiment [3]; in the experiment with Streptococcus; on Streptokinase A) was > 150 µM (not active) throughout.

For `CC(C)(C)c1ccc(OCC(=O)N2CCN(c3ncccn3)CC2)cc1`, the EC50 (in experiment [3]; in the experiment with Streptococcus; at Streptokinase A) was > 150 µM (not active) in each case. `CC(=O)Nc1ccc(S(=O)(=O)N2c3ccccc3NC(=O)CC2C)c(Cl)c1` (stereo not given): the AC50 in the experiment on INS1 is > 260 µM (inactive).

Regarding `C=CCNC(=S)N/N=C/c1ccc(OCc2ccccc2Cl)cc1`, the figures for the EC50 in experiment [1] and in experiment [2] were > 30 µM (not active) and 1.65 µM (active), respectively.

For the compound `CCCN=C(S)N1CCN(c2nc(C)nc3sc4c(c23)CCCC4)CC1`, in experiment [4], the CC50 is 11.2 µM (active).

Regarding `O=C(Nc1ccccc1N1CCCCC1)c1cc(S(=O)(=O)N2CCOCC2)ccc1Cl`, in experiment [4], the CC50 was 21.7 µM (active). On the same count and under the same terms, with `Clc1cccc(-c2cc3nc4c(c(N5CCN(c6cnccn6)CC5)n3n2)CCCC4)c1` the figure was 35.2 µM (active); with `O=C1CCC(/C=C/c2ccccc2)=NN1Cc1ccccc1Cl`, 27 µM (active). For the compound `COc1ccc2c(c1)c(CC(=O)NCc1cc([N+](=O)[O-])ccc1O)c(C)n2C(=O)c1ccc(Cl)cc1`, the concentration for a half-maximal effect (EC50) was 19.1 µM (active) in experiment [3], > 150 µM (not active) with Streptococcus and 20.2 µM (active) on Streptokinase A. With `CCCNC(=O)CCc1c(C)nc2c(c(C)nn2-c2ccc(C)cc2)c1C`, the EC50 was > 60 µM (not active) in experiment [1] and 1.8 µM (active) in experiment [2].

As to `COc1cccc(C(=O)Nc2cccc(-c3nnc(-c4ccccc4)o3)c2)c1`, the results for the EC50 (in experiment [3]; with Streptococcus; on Streptokinase A) were 23.2 µM (active), 57.9 µM (active) and > 150 µM (not active), respectively. With `CCOC(=O)c1cnc2ccc(OCC)cc2c1N1CCN(c2ccccc2)CC1`, the half-maximal activity concentration (AC50) in the experiment with INS1 is 14.9 µM (active). Take `COc1ccc(N2CCN(C(CNS(=O)(=O)c3cc(F)ccc3F)c3cccnc3)CC2)cc1` (stereo not given): the results for the EC50 in experiment [1] and in experiment [2] were > 60 µM (not active) and 0.206 µM (active), respectively.

With `O=C1N=C(N/N=C/c2ccccc2O)SC1Cc1ccc(F)cc1` (stereo not given), the results for the concentration for a half-maximal effect (EC50) (in experiment [3]; in the experiment on Streptococcus; on Streptokinase A) were 16 µM (active), > 150 µM (not active) and > 150 µM (not active), respectively. Besides, the AC50 in the experiment on INS1 was 4.67 µM (active). Take `COc1cc(/C(C)=C/c2ccccc2)c2c(c1)oc1ccccc12`: the concentration giving a half-maximal response (EC50) was 2.3 µM (active) in experiment [3], > 150 µM (not active) with Streptococcus and 20.9 µM (active) on Streptokinase A. In the case of `COc1ccccc1NC(=O)Nc1nc(CC(=O)N2CCN(c3ccccc3OC)CC2)cs1`, in experiment [4], the 50% cytotoxic concentration (CC50) is 15.2 µM (active). Regarding `CCOCC(=O)Nc1ccc([N+](=O)[O-])cc1OC`, in experiment [4], the CC50 is > 50 µM (active).

With `Fc1cccc(Cc2noc(CN3CCCN(C4Cc5ccccc5C4)CC3)n2)c1`, the values for the EC50 in experiment [1] and in experiment [2] were 45.2 µM (active) and 0.57 µM (active), respectively.

Consider `COC(=O)C1=C(c2ccccc2OCc2ccccc2)C[C@@H]2CC[C@H]1N2C(=O)NCc1ccc([N+](=O)[O-])cc1`, for which the 50% cytotoxic concentration (CC50) in experiment [4] was 37.6 µM (active). `Cc1cc(C)nc(SCC(=O)NC2=NN=C(c3ccc(Br)cc3)CS2)n1`: the EC50 in experiment [1] was > 60 µM (inconclusive); in experiment [3] it was 2.6 µM (active); in the experiment on Streptococcus it was 3.62 µM (active); in experiment [2], 1.65 µM (active); on Streptokinase A, > 150 µM (not active). Besides, the AC50 in the experiment on INS1 was 4.78 µM (active).
